Active and inactive are the calls of the source. The rule behind the calls is not given here.
Experiments:
Escherichia coli [1] = assay: Inhibition of biofilm formation of Escherichia coli ATCC 25922 at MIC incubated for 24 hrs by crystal violet staining based analysis relative to control; format: functional
[2] = Cmax in fasted Sprague-Dawley rat at 1 mg/kg, iv by LC-MS/MS analysis; format: ADME, organism-based; conditions: in vivo
[3] = Toxicity in fasted male Sprague-Dawley rat assessed as relative heart weight ratio at 100 mg/kg, IG measured for 14 days (reference value: 0.396 +/- 0.043); format: organism-based; conditions: in vivo, po, 336 h, time 14 day
Staphylococcus aureus = assay: Antibacterial activity against methicillin-resistant Staphylococcus aureus ATCC 33591 infected in neutropenic Kunming mouse model assessed as restoration of infection- induced change in cell morphology in liver at 20 mg/kg, ip measured after 7 days; format: functional, organism-based; conditions: time 7.0 day
[4] = Toxicity in fasted male Sprague-Dawley rat assessed as relative spleen weight ratio at 331 mg/kg, IG measured for 14 days (reference value: 0.246 +/- 0.037); format: organism-based; conditions: in vivo, po, 336 h, time 14 day
[5] = Toxicity in fasted female Sprague-Dawley rat assessed as body weight at 331 mg/kg, IG measured after 7 days (reference value: 188.2 +/- 9.2 g); format: organism-based; conditions: in vivo, po, 168 h, time 7 day
[6] = Toxicity in fasted male Sprague-Dawley rat assessed as relative heart weight ratio at 224 mg/kg, IG measured for 14 days (reference value: 0.396 +/- 0.043); format: organism-based; conditions: in vivo, po, 336 h, time 14 day
[7] = Toxicity in Sprague-Dawley rat assessed as animal death at 10 to 100 mg/kg, IG measured for 14 days; format: organism-based; conditions: in vivo, po, 336 h, dose 10-100 mg/kg, time 14 day
[8] = Toxicity in fasted female Sprague-Dawley rat assessed as body weight at 224 mg/kg, IG measured after 7 days (reference value: 188.2 +/- 9.2 g); format: organism-based; conditions: in vivo, po, 168 h, time 7 day
Escherichia coli [9] = assay: Bactericidal activity against Escherichia coli ATCC 25922 at 4 to 8 times MIC incubated for 8 to 12 hrs by time kill assay relative to control; format: functional; conditions: time 8-12 hrs
[10] = Toxicity in fasted female Sprague-Dawley rat assessed as relative liver weight ratio at 331 mg/kg, IG measured for 14 days (reference value: 3.199 +/- 0.062); format: organism-based; conditions: in vivo, po, 336 h, time 14 day
Escherichia coli [11] = assay: Bactericidal activity against Escherichia coli ATCC 25922 incubated for 24 hrs by time kill assay; format: functional, organism-based

In the case of C=C[C@]1(C)C[C@@H](OC(=O)COC(=O)/C=C/c2ccc(N(C)C)cc2)[C@]2(C)[C@H](C)CC[C@]3(CCC(=O)[C@H]32)[C@@H](C)[C@@H]1O, the “inhibition (INH)” value (Escherichia coli [1]) is reported as 58.1%, the Cmax [2] is reported as 9570 ng/mL and the Ratio [3] is reported as 0.396. For the same molecule, the Activity (Staphylococcus aureus) was “Active”, the Ratio [4] was 0.235 and the Activity [5] was 196.2 g. The Ratio [6] was 0.38, the Activity [7] was “Non-Toxic” and the Activity [8] was 191.2 g. For the same molecule, the Activity (Escherichia coli [9]) was 100%, the Ratio [10] was 3.171 and the Activity (Escherichia coli [11]) was “Dose-Dependent Effect”.

Source: ChEMBL document CHEMBL5625206, “Design, synthesis, and evaluation of novel pleuromutilin aryl acrylate derivatives as promising broad-spectrum antibiotics especially for combatting multi-drug resistant gram-negative bacteria” (Eur J Med Chem, 2023)
